The values below come from US20250114347A1, “TOPICAL NALTREXONE AS A TREATMENT FOR DRY EYE” (The Penn State Research Foundation, priority 2022, published 2025).

The test system of data set [1] is normal rat. The data set is described as follows: Schirmer test (tear production) in a normal rat, topical drops. Format: in vivo. The note with it: 3% NTX solution, topical drop. The protocol: (§1) Four solutions were prepared with 0%, 0.5%, 1.5%, and 3% naltrexone (NTX). Previous formulations contained 0.003% NTX.
(§2) Experimental paradigm: 1-4 rats were tested with each dose (mixture of male and females). Left eyes only were treated twice daily with one drop. • Schirmer test for baseline (to determine tear production and establish dry eye) • Add drop at 0800 and again at 1700 hr (4:40-6:00 pm) • Take Schirmer test 24 hr later • Add drop at 0800 and again at 1700 hr (4th drop) • Take Schirmer test 48 hr after first drop

The test system of data set [2] is diabetic rats. Description: Schirmer test (tear production) in hyperglycemic rats with dry eye, topical drops twice daily. Type of data set: in vivo, Sprague-Dawley rats. The protocol:
as §1
Adult male and female Sprague-Dawley rats were rendered hyperglycemic for 6-8 weeks, with blood glucose levels >600 mg/dL. Age at time of testing was 15-18 weeks of age.
as §2

With `O=C1CC[C@@]2(O)[C@H]3Cc4ccc(O)c5c4[C@@]2(CCN3CC2CC2)[C@H]1O5` [NTX, 17-(cyclopropylmethyl)-4,5α-epoxy-3,14-dihydroxymorphinan-6-one], the “effect on dry eye in a normal rat” value in data set [1] is on record as “caused dry eye”. Besides, the “reversal of dry eye” value in data set [2] (0.5% NTX solution, one drop twice daily, Schirmer test at 24 and 48 hr) is reported as “reversed dry eye”; in data set [2] (1.5% NTX solution, one drop twice daily, Schirmer test at 24 and 48 hr) it was “reversed dry eye”; in data set [2] (3% NTX solution left at RT for 3 weeks (some decomposition of the NTX)) it was “effective at reversing dry eye”; in data set [2] (3% NTX solution, both male and female, one drop twice daily, Schirmer test at 24 and 48 hr), “did not reverse dry eye”. In data set [2] (1.5% NTX solution compared with 0.5% and 3%), the “relative effectiveness among the tested concentrations” value is reported as “most effective”.
